Data on ten molecules can be found in ChEMBL document CHEMBL1201862, “PubChem BioAssay data set” (2004).

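Test compounds were applied to cells in 96-well plates for 48 hours at 5 doses. GI50: concentration for 50% inhibition of growth.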 Active and inactive are the calls of the source. Cut-off read from the data, not from the text of the source: active = GI50 up to about 1.1 µM and inactive = higher.

Some test systems named below: HCC 2998; HCT-116; HCT-15; HL-60; HOP-62; HT-29; K562; MOLT-4; NCI-H460; OVCAR-5; OVCAR-8; RPMI-8226; SF-295; SK-MEL-28; SK-MEL-2; SK-OV-3; SN12C; UACC-62; UO-31; CCRF-CEM.
Assay in all cases: growth of human tumour cells (NCI), 48 h

As to `CC(=O)OC1CC2(O)C(CCC3(C)C(c4ccc(=O)oc4)CCC32O)C2(C)CCC(O)C=C12` (configuration not stated), the GI50 in the assay on HCC 2998 was 0.0644 µM (active); in the assay with HCT-116, 0.0375 µM (active); with HCT-15, 0.0239 µM; with HL-60 it was 0.00455 µM (active); with HOP-62 it was 0.0375 µM (active); in the assay with HT-29, 0.0239 µM (active). In addition, the GI50 in the assay with K562 was 0.0375 µM (active); in the assay on MOLT-4, 0.00182 µM (active); in the assay with NCI-H460, 0.00454 µM (active); in the assay with OVCAR-5, 0.104 µM (active); in the assay with OVCAR-8, 0.0152 µM (active); in the assay on RPMI-8226, 0.00993 µM (active). Also, the GI50 is 0.00955 µM (active) in the assay with SF-295; 0.0375 µM (active) in the assay on SK-MEL-28; 0.0177 µM (active) in the assay with SK-MEL-2; 0.0336 µM (active) in the assay on SK-OV-3; 0.00462 µM (active) in the assay on SN12C; 0.024 µM (active) with UACC-62. In addition, in the assay with UO-31, the GI50 is 0.0297 µM (active).

Regarding `CC(=O)OC1CC[C@@]2(C)C(=CC[C@@H]3[C@@H]2CC[C@]2(C)Nc4nn(S(C)(=O)=O)cc4C[C@@H]32)C1` (some centres not stated), the GI50 in the assay on CCRF-CEM was 10.6 µM (inactive); in the assay on HCC 2998, 30.4 µM (inactive); in the assay on HCT-15, 24.2 µM; in the assay with HL-60 it was > 10 µM (inactive); with HOP-62 it was 43.9 µM (inactive); with HT-29 it was 11.6 µM (inactive). Also, the GI50 was 12.1 µM (inactive) in the assay on K562; 16.1 µM (inactive) in the assay on MOLT-4; 18.7 µM (inactive) with NCI-H460; 37.9 µM (inactive) in the assay with OVCAR-5; 32.5 µM (inactive) in the assay with OVCAR-8; 30 µM (inactive) in the assay with RPMI-8226. The GI50 was 34 µM (inactive) in the assay on SF-295; 28.4 µM (inactive) in the assay on SK-MEL-28; 22.3 µM (inactive) in the assay with SK-MEL-2; > 100 µM (inactive) with SK-OV-3; 59.7 µM (inactive) in the assay with SN12C; 21.8 µM (inactive) with UACC-62. For the same molecule, the GI50 with UO-31 was 37 µM (inactive).

`Cc1cc(O)nc(NN2C(Cl)C(=O)C2c2c(O)ccc3ccccc23)n1` (configuration not stated): the GI50 in the assay with CCRF-CEM is 6.76 µM (inactive); in the assay on HCC 2998 it was 15 µM (inactive); in the assay on HCT-116, 17.3 µM (inactive); with HCT-15 it was 15.6 µM; in the assay with HL-60 it was 14.1 µM (inactive); with HOP-62, 15.1 µM (inactive). The GI50 was 25 µM (inactive) in the assay with HT-29; 23.2 µM (inactive) in the assay on K562; 16.3 µM (inactive) in the assay with MOLT-4; 15 µM (inactive) in the assay with NCI-H460; 36.9 µM (inactive) in the assay on OVCAR-5; 27.4 µM (inactive) in the assay with OVCAR-8. Besides, the GI50 is 15.5 µM (inactive) with RPMI-8226; 19.5 µM (inactive) in the assay on SK-MEL-28; 15.2 µM (inactive) with SK-MEL-2; 21.7 µM (inactive) with SN12C; 20.3 µM (inactive) with UACC-62; 26.1 µM (inactive) in the assay on UO-31.

Regarding `O=C(O)C12CC3CC(C1)C2C=C3P(=O)(O)O` (configuration not stated), the GI50 is > 100 µM (inactive) in the assay with CCRF-CEM; > 100 µM (inactive) in the assay with HCC 2998; > 100 µM (inactive) in the assay with HCT-116; above 100 µM in the assay on HCT-15; > 100 µM (inactive) in the assay with HL-60; > 100 µM (inactive) in the assay on HOP-62. Further, the GI50 with HT-29, in the assay with K562, in the assay with MOLT-4, with NCI-H460, in the assay on OVCAR-5 and with OVCAR-8 was > 100 µM (inactive) in each case. In addition, the GI50 with RPMI-8226, with SF-295, with SK-MEL-28, in the assay on SK-MEL-2, with SK-OV-3 and in the assay with SN12C was > 100 µM (inactive) throughout. The GI50 with UACC-62 and in the assay on UO-31 was > 100 µM (inactive) in each case.

Take `CC1(C)CC2(CC(C)(C)N1O)NC(=O)OC2=O`: the GI50 in the assay on CCRF-CEM was > 77.4 µM (inactive); in the assay with HCC 2998, > 100 µM (inactive); with HCT-116 it was > 100 µM (inactive); in the assay with HCT-15 it was above 100 µM; in the assay with HL-60, > 100 µM (inactive); in the assay with HOP-62 it was > 100 µM (inactive). The GI50 is > 100 µM (inactive) with HT-29; > 100 µM (inactive) in the assay with K562; > 100 µM (inactive) in the assay on MOLT-4; > 31.6 µM (inactive) in the assay with NCI-H460; > 100 µM (inactive) with OVCAR-5; > 100 µM (inactive) in the assay on OVCAR-8. In addition, the GI50 with RPMI-8226, in the assay with SF-295, with SK-MEL-28, with SK-MEL-2, in the assay with SK-OV-3 and in the assay with SN12C was > 100 µM (inactive) throughout. Also, the GI50 in the assay on UACC-62 and in the assay on UO-31 was > 100 µM (inactive) each time.

On to `CCOC(=O)C1=NN(c2ccccc2)C2=CC(C)=NN(C)C(=S)N21`, for which the GI50 in the assay on CCRF-CEM is > 100 µM (inactive); in the assay on HCC 2998, > 100 µM (inactive); with HCT-116, > 100 µM (inactive); in the assay with HCT-15 it was above 100 µM; in the assay with HL-60, > 100 µM (inactive); with HT-29, > 100 µM (inactive). Moreover, the GI50 with K562 was > 100 µM (inactive); in the assay on MOLT-4 it was > 100 µM (inactive); with NCI-H460, 48.5 µM (inactive); in the assay on OVCAR-5 it was > 100 µM (inactive); with OVCAR-8, > 100 µM (inactive); in the assay with RPMI-8226, > 100 µM (inactive). In addition, the GI50 in the assay on SF-295, with SK-MEL-28, in the assay with SK-MEL-2, with SK-OV-3, in the assay on SN12C and with UACC-62 was > 100 µM (inactive) in each case. Also, the GI50 with UO-31 was > 100 µM (inactive).

For the molecule `CN1CN(C(=O)N2CN(C)C(=O)N(C)C2)CN(C)C1=O`, the GI50 was > 100 µM (inactive) in the assay on CCRF-CEM; > 100 µM (inactive) in the assay with HCC 2998; > 100 µM (inactive) with HCT-116; above 100 µM with HCT-15; > 100 µM (inactive) in the assay with HL-60; > 100 µM (inactive) with HOP-62. Also, the GI50 in the assay on HT-29, with K562, in the assay on MOLT-4, in the assay with OVCAR-5, with OVCAR-8 and in the assay on RPMI-8226 was > 100 µM (inactive) in each case. The GI50 in the assay on SF-295, in the assay with SK-MEL-28, in the assay on SK-MEL-2, in the assay with SK-OV-3, with SN12C and in the assay with UACC-62 was > 100 µM (inactive) throughout. For the same molecule, in the assay on UO-31, the GI50 is > 100 µM (inactive).

In the case of `CCCCCCCCCC[C@@H](O)[C@@H]1CC[C@@H]([C@@H]2CC[C@@H]([C@@H](O)CCCCCCCCCCC(O)CC3=CC(C)OC3=O)O2)O1` (some centres not stated), the GI50 with CCRF-CEM was 2.47 µM (inactive); in the assay with HCC 2998, 4.84 µM (inactive); in the assay with HCT-116, 0.551 µM (active); in the assay with HCT-15 it was 5.89 µM; with HL-60, 0.116 µM (active); in the assay on HOP-62 it was 0.655 µM (active). In addition, the GI50 with HT-29 is > 10 µM (inactive); in the assay on K562, 0.248 µM (active); in the assay with MOLT-4, 1.26 µM (inactive); with NCI-H460, 1.28 µM (inactive); with OVCAR-5, 0.128 µM (active); in the assay with OVCAR-8, 4.43 µM (inactive). For the same molecule, the GI50 in the assay on RPMI-8226 was 1.26 µM (inactive); with SF-295, 2.72 µM (inactive); with SK-MEL-28, > 10 µM (inactive); in the assay with SK-OV-3, > 10 µM (inactive); with SN12C it was > 10 µM (inactive); in the assay with UACC-62, 3.79 µM (inactive). In addition, the GI50 with UO-31 is 0.562 µM (active).

As to `CC(=O)NNc1nc(C)c(C(=O)NNC(=O)C(=O)Nc2c(C)cccc2C(C)(C)C)s1`, the GI50 with CCRF-CEM was 16.2 µM (inactive); with HCC 2998 it was 25.6 µM (inactive); in the assay with HCT-116, 75.2 µM (inactive); in the assay with HCT-15, 59.7 µM; with HL-60, 33.3 µM (inactive); in the assay with HOP-62 it was > 100 µM (inactive). For the same molecule, the GI50 in the assay on HT-29 is 64 µM (inactive); in the assay with K562, 31.3 µM (inactive); with MOLT-4, 41.1 µM (inactive); in the assay on NCI-H460, 52.2 µM (inactive); in the assay on OVCAR-5 it was > 100 µM (inactive); with OVCAR-8 it was > 100 µM (inactive). Besides, the GI50 in the assay with RPMI-8226 was 45.9 µM (inactive); with SF-295, > 100 µM (inactive); in the assay on SK-MEL-28, > 100 µM (inactive); in the assay on SK-MEL-2, > 100 µM (inactive); in the assay on SK-OV-3, > 100 µM (inactive); with SN12C it was 44.2 µM (inactive). For the same molecule, the GI50 with UACC-62 is 97.9 µM (inactive); in the assay with UO-31, 47.8 µM (inactive).

Turning to `CCP(=S)(CC)CCl`, the GI50 with CCRF-CEM was > 100 µM (inactive); in the assay on HCC 2998, > 100 µM (inactive); in the assay with HCT-116 it was > 100 µM (inactive); in the assay with HCT-15, above 100 µM; with HL-60 it was > 100 µM (inactive); in the assay with HOP-62, > 100 µM (inactive). In addition, the GI50 with HT-29 is > 100 µM (inactive); in the assay on K562, > 100 µM (inactive); in the assay on MOLT-4, > 10 µM (inactive); in the assay on NCI-H460, > 100 µM (inactive); in the assay on OVCAR-5, > 100 µM (inactive); in the assay on OVCAR-8, > 100 µM (inactive). In addition, the GI50 in the assay on RPMI-8226, in the assay with SF-295, with SK-MEL-28, in the assay on SK-MEL-2, in the assay with SK-OV-3 and in the assay on SN12C was > 100 µM (inactive) in each case. In addition, in the assay on UO-31, the GI50 was > 100 µM (inactive).
